From patent US8912169B2, “Beta-lactamase inhibitors” (VenatoRx Pharmaceuticals, Inc., priority 2012, dated 2014) come the findings set out here.

Where only a bound is given, the exact number is not on record here.

What all share (assay type): biochemical
The target of assay [1] is T1, VIM-2 (Escherichia coli, UniProt Q5U7L7).
T1 construct: made in house; host or cells: E. coli BL21(DE3)
The experiment in a line: β-lactamase enzyme inhibition, VIM-2. As to conditions: substrate Nitrocefin 100 μM, 486 nm; read-out: Class B VIM-2 IC50. The procedure: For Vim-2 metallo β-lactamase, the procedure was identical with the following exceptions, first the protein was not pH adjusted to pH 5 with 50 mM sodium acetate, second, the chromatography step was changed to a 5 ml Q sepharose anion exchange column pre-equilibrated with 50 mM Hepes pH 7.5, and elution of the protein was achieved by a linear gradient of NaCl (0-600 mM). Finally, the VIM-2 purification required a second run (3rd step) on the Q sepharose anion exchange column to achieve acceptable purity (>90%).
(§1) An equal volume of diluted enzyme stock was added, and the plates were incubated at 37° C. for 15 min. Nitrocefin was used as substrate for p99 AmpC, VIM-2 and OXA-1 and dispensed into each well at a final concentration of 100 μM. Absorbance at 486 nm was immediately monitored for 10 min using a Biotek Powerwave XS2 microplate spectrophotometer using the GENS software package (Biotek Instruments, Winooski Vt.). In an analogous fashion, imipenem was used as substrate for Kpc-2 and Cefotaxime was used for SHV-5, while changes in absorbance upon hydrolysis of the β-lactam ring were monitored at 300 nm and 260 nm respectively in UV-transparent 96-well microtiter assay plates. Maximum rates of hydrolysis were compared to those in control wells (without inhibitors), and percentages of enzyme inhibition were calculated for each concentration of inhibitor. The concentration of inhibitor needed to reduce the initial rate of hydrolysis of substrate by 50% (IC50) was calculated as the residual activity of β-lactamase at 486 nm using GraFit version 7 kinetics software package (Erithacus Software, Surrey, UK).
(§2) Using the methodology described above, examples of the current invention were evaluated for their ability to inhibit β-lactamase enzymes from all four Ambler classifications (A through D). […] NT=Not tested.

For assay [2], the target named is T2, KPC-2 (Klebsiella pneumoniae, UniProt Q9F663).
T2 construct: made in house; host or cells: E. coli BL21(DE3)
The experiment in a line: β-lactamase enzyme inhibition, KPC-2. As to conditions: substrate imipenem, 300 nm; read-out: Class A KPC-2 IC50. As to the method:
(§3) For SHV-5, Kpc-2, p99AmpC and OXA-1 β-lactamases, E. coli BL21(DE3) bacterial cells carrying expression plasmids (expressed as native untagged proteins) for the individual β-lactamases were grown in 1 L of Superbroth (Teknova Inc. Hollister, Calif.) supplemented with 100 μg/mlkanamycin selection and 1×5052 (0.5% glycerol, 0.05% glucose and 0.2% α-lactose) at 35° C. for 18-20 hours. Cells were harvested by centrifugation (4,000×g, 4° C., 20 min), resuspended in 50 ml of 10 mM HEPES pH 7.5 ( 1/20 of the initial volume). The cells were lysed by sonication (5 pulses of 45 seconds) at 45 W on ice. The lysates were clarified by centrifugation at 10,000×g for 40 minutes at 4° C. Samples were diluted 5-fold in 50 mM sodium acetate pH 5.0, stored overnight at 4° C., after which they were centrifuged at 10,000×g for 30 minutes to clarify, and filtered through 0.45 μm filters. The samples were loaded onto a 5 ml Capto S sepharose cation exchange column (GE Healthcare) pre-equilibrated with 50 mM sodium acetate pH 5.0. The column was washed with 5 column volumes of 50 mM sodium acetate pH 5.0 to wash out unbound protein and a linear gradient of NaCl (0 to 500 mM) was used to elute the protein (over 16 CV) from the column. Fractions were assayed for β-lactamase activity using Centa (Calbiochem, Gibbstown, N.J.) or Nitrocefin (EMD Millipore chemicals, Darmstadt, Germany) as a reporter β-lactamase substrate for activity in the isolated fractions. Active fractions were pooled, concentrated and further purified by gel filtration chromatography on a Superdex 75 prep grade gel filtration column (GE Healthcare, Piscataway, N.J.) pre-equilibrated in 50 mM Hepes pH 7.5, 150 mM NaCl. Active fractions were pooled concentrated, quantitated by BCA protein determination (Thermo Scientific, Rockford, Ill.), dialyzed into PBS and frozen at −80° C. in 20% glycerol until use.
as §1, §2

The target in assay [3] is T3, OXA-1 (Escherichia coli, UniProt P13661).
T3 construct: made in house; host or cells: E. coli BL21(DE3)
Put plainly: β-lactamase enzyme inhibition, OXA-1. As to conditions: substrate Nitrocefin 100 μM, 486 nm; read-out: Class D OXA-1 IC50. The procedure: as §3, §1, §2

In assay [4] the target is T4, p99 AmpC (Enterobacter cloacae, UniProt P05364).
T4 construct: made in house; host or cells: E. coli BL21(DE3)
The experiment in a line: β-lactamase enzyme inhibition, p99 AmpC. The procedure: as §3, §1, §2

Assay [5] addresses T5, SHV-5 (Klebsiella pneumoniae, UniProt P0A3M1).
T5 construct: made in house; host or cells: E. coli BL21(DE3)
The experiment in a line: β-lactamase enzyme inhibition, SHV-5. As to the method:
as §3, §1, §2

Take `O=C(C[C@H]1CC[C@H](N2C=NCC2)CC1)N[C@H]1Cc2cccc(C(=O)O)c2OB1O` [Example 29, (R)-3-(2-(trans-4-(4,5-dihydro-1H-imidazol-1-yl)cyclohexyl)acetamido)-2-hydroxy-3,4-dihydro-2H-benzo[e][1,2]oxaborinine-8-carboxylic acid]: the IC50 was 100 to 1000 nM in assay [1]; under 100 nM in assay [2]; under 100 nM in assay [3]; under 100 nM in assay [4]; under 100 nM in assay [5].

Consider `N=CN[C@H]1CC[C@H](CC(=O)N[C@H]2Cc3cccc(C(=O)O)c3OB2O)CC1` [Example 30, (R)-3-(2-(trans-4-formimidamidocyclohexyl)acetamido)-2-hydroxy-3,4-dihydro-2H-benzo[e][1,2]oxaborinine-8-carboxylic acid], for which the IC50 is 100 to 1000 nM in assay [1]; under 100 nM in assay [2]; 100 to 1000 nM in assay [3]; under 100 nM in assay [4]; under 100 nM in assay [5].

On to `O=C(CC1CCCCC1)N[C@H]1Cc2cccc(C(=O)O)c2OB1O` [Example 31, (R)-3-(2-cyclohexylacetamido)-2-hydroxy-3,4-dihydro-2H-benzo[e][1,2]oxaborinine-8-carboxylic acid], for which the IC50 was 1000 to 10000 nM in assay [1]; under 100 nM in assay [2]; under 100 nM in assay [3]; under 100 nM in assay [4]; under 100 nM in assay [5].

With `O=C(C[C@H]1CC[C@H](NCc2ccccn2)CC1)N[C@H]1Cc2cccc(C(=O)O)c2OB1O` [Example 32, (R)-2-hydroxy-3-(2-(trans-4-(pyridin-2-ylmethylamino)cyclohexyl)acetamido)-3,4-dihydro-2H-benzo[e][1,2]oxaborinine-8-carboxylic acid], the half-maximal inhibitory concentration (IC50) was 100 to 1000 nM in assay [1]; under 100 nM in assay [2]; under 100 nM in assay [3]; under 100 nM in assay [4]; under 100 nM in assay [5].

Turning to `O=C(C[C@H]1CC[C@H](NCC2CCNCC2)CC1)N[C@H]1Cc2cccc(C(=O)O)c2OB1O` [Example 33, (R)-2-hydroxy-3-(2-(trans-4-(piperidin-4-ylmethylamino)cyclohexyl)acetamido)-3,4-dihydro-2H-benzo[e][1,2]oxaborinine-8-carboxylic acid], the IC50 is 100 to 1000 nM in assay [1]; under 100 nM in assay [2]; under 100 nM in assay [3]; under 100 nM in assay [4]; under 100 nM in assay [5].

Turning to `N=C(N)N1CCC(CN[C@H]2CC[C@H](CC(=O)N[C@H]3Cc4cccc(C(=O)O)c4OB3O)CC2)CC1` [Example 34, (R)-3-(2-(trans-4-((1-carbamimidoylpiperidin-4-yl)methylamino)cyclohexyl)acetamido)-2-hydroxy-3,4-dihydro-2H-benzo[e][1,2]oxaborinine-8-carboxylic acid], the IC50 in assay [1] was 100 to 1000 nM; in assay [2], under 100 nM; in assay [3] it was under 100 nM; in assay [4], under 100 nM; in assay [5], under 100 nM.

Turning to `N[C@H]1CC(CC(=O)N[C@H]2Cc3cccc(C(=O)O)c3OB2O)C[C@@H]1N` [Example 37], the IC50 in assay [1] was 100 to 1000 nM; in assay [2] it was under 100 nM; in assay [3] it was under 100 nM; in assay [4], under 100 nM; in assay [5], 1000 to 10000 nM.

With `CC(NC(=O)C1C[C@H](N)[C@@H](N)C1)C(=O)N[C@H]1Cc2cccc(C(=O)O)c2OB1O` (some centres unmarked) [Example 38], the concentration for half-maximal inhibition (IC50) was 100 to 1000 nM in assay [1]; 100 to 1000 nM in assay [2]; 100 to 1000 nM in assay [3]; under 100 nM in assay [4]; under 100 nM in assay [5].

As to `O=C(C[C@H]1CC[C@H](NCc2nccs2)CC1)N[C@H]1Cc2cccc(C(=O)O)c2OB1O` [Example 39], the 50% inhibitory concentration (IC50) was 1000 to 10000 nM in assay [1]; under 100 nM in assay [2]; under 100 nM in assay [3]; under 100 nM in assay [4]; under 100 nM in assay [5].

For `O=C(CC1CCC(N2CCOCC2)CC1)N[C@H]1Cc2cccc(C(=O)O)c2OB1O` (stereo partly drawn) [Example 40, (R)-2-hydroxy-3-(2-(4-morpholinocyclohexyl)acetamido)-3,4-dihydro-2H-benzo[e][1,2]oxaborinine-8-carboxylic acid], the IC50 was under 100 nM in assay [1]; under 100 nM in assay [2]; under 100 nM in assay [3]; under 100 nM in assay [4]; 100 to 1000 nM in assay [5].

For the compound `N[C@@H](C(=O)N[C@H]1Cc2cccc(C(=O)O)c2OB1O)C1CCCCC1` [Example 42, (R)-3-((R)-2-amino-2-cyclohexylacetamido)-2-hydroxy-3,4-dihydro-2H-benzo[e][1,2]oxaborinine-8-carboxylic acid], the 50% inhibitory concentration (IC50) in assay [1] is 1000 to 10000 nM; in assay [2] it was under 100 nM; in assay [3], 100 to 1000 nM; in assay [4], under 100 nM; in assay [5], 100 to 1000 nM.

On to `NCCNC1CCC(O)(CC(=O)N[C@H]2Cc3cccc(C(=O)O)c3OB2O)CC1` (some centres unmarked) [Example 43, 3-{2-[4-(2-Amino-ethylamino)-1-hydroxy-cyclohexyl]-acetylamino}-2-hydroxy-3,4-dihydro-2H-benzo[e][1,2]oxaborinine-8-carboxylic acid], for which the IC50 in assay [1], in assay [2], in assay [3], in assay [4] and in assay [5] was under 100 nM throughout.

Consider `NC1CCC(O)(CC(=O)N[C@H]2Cc3cccc(C(=O)O)c3OB2O)CC1` (some centres unmarked) [Example 44, 3-[2-(4-Amino-1-hydroxy-cyclohexyl)-acetylamino]-2-hydroxy-3,4-dihydro-2H-benzo[e][1,2]oxaborinine-8-carboxylic acid], for which the concentration for half-maximal inhibition (IC50) was in the range of 1000 to 10000 nM in assay [1]; 100 to 1000 nM in assay [2]; 100 to 1000 nM in assay [3]; 100 to 1000 nM in assay [4]; 100 to 1000 nM in assay [5].

For `N[C@H]1CC[C@H](NCC(=O)N[C@H]2Cc3cccc(C(=O)O)c3OB2O)CC1` [Example 45, 3-[2-(4-Amino-cyclohexylamino)-acetylamino]-2-hydroxy-3,4-dihydro-2H-benzo[e][1,2]oxaborinine-8-carboxylic acid], the IC50 is 1000 to 10000 nM in assay [1]; under 100 nM in assay [2]; 100 to 1000 nM in assay [3]; under 100 nM in assay [4]; under 100 nM in assay [5].

Take `NCCN[C@H]1CC[C@@H](CC(=O)N[C@H]2Cc3cccc(C(=O)O)c3OB2O)CC1` [Example 46, (R)-3-(2-(cis-4-(2-aminoethylamino)cyclohexyl)acetamido)-2-hydroxy-3,4-dihydro-2H-benzo[e][1,2]oxaborinine-8-carboxylic acid]: the 50% inhibitory concentration (IC50) in assay [1] was 100 to 1000 nM; in assay [2] it was under 100 nM; in assay [3], under 100 nM; in assay [4], under 100 nM; in assay [5], 100 to 1000 nM.

As for `O=C(C[C@H]1CC[C@H](NCCNc2ccccn2)CC1)N[C@H]1Cc2cccc(C(=O)O)c2OB1O` [Example 48, (R)-2-hydroxy-3-(2-(trans-4-(2-(pyridin-2-ylamino)ethylamino)cyclohexyl)acetamido)-3,4-dihydro-2H-benzo[e][1,2]oxaborinine-8-carboxylic acid], the IC50 is 100 to 1000 nM in assay [1]; under 100 nM in assay [2]; under 100 nM in assay [3]; under 100 nM in assay [4]; under 100 nM in assay [5].

By IC50 is commonly meant the concentration needed to halve the response being measured.
